In test [1] the target is T1, Acetylcholinesterase (Homo sapiens, UniProt P22303). The experiment in a line: Inhibition of human serum BChE using butyrylthiocholine iodide as substrate by spectrophotometric method.
Test [2] has as its target Acetylcholinesterase (Electrophorus electricus) (UniProt O42275).
Description: (§1) Inhibition of electric eel AChE using acetylthiocholine iodide as substrate by spectrophotometric method
The target in test [3] is T1, Acetylcholinesterase.
Description: (§2) Inhibition of human recombinant AChE using acetylthiocholine iodide as substrate by spectrophotometric method
Test [4] deals with Acetylcholinesterase (Electrophorus electricus, UniProt O42275).
Description: as §1
Test [5] concerns the target T1, Acetylcholinesterase. The source holds these as a separate data set.
Description: as §2

Molecules are shown by their SMILES. Calls of active or inactive are those of the source. The calls are words filed in the database; no cut-off is given here.

Acetylcholinesterase (Electrophorus electricus, UniProt O42275), sequence (O42275 whole entry): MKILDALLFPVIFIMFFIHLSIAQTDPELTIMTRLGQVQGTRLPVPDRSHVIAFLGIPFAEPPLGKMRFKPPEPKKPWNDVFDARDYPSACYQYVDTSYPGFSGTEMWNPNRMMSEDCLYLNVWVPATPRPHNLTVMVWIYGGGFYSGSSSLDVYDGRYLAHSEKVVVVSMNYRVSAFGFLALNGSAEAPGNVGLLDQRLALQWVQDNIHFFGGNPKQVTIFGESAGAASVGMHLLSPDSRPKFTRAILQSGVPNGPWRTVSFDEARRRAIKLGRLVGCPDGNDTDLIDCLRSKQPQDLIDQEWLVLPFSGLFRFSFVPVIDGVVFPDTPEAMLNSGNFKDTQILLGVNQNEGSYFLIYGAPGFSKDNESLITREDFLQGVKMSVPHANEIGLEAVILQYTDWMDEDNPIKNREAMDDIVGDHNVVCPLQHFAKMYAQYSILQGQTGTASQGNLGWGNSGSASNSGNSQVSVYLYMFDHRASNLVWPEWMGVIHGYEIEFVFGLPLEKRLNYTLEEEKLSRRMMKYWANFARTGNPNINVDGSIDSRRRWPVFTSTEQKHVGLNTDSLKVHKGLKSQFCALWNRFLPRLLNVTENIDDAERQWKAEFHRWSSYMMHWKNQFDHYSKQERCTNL
Acetylcholinesterase (Electrophorus electricus), sequence (O42275 24-633 limits assumed): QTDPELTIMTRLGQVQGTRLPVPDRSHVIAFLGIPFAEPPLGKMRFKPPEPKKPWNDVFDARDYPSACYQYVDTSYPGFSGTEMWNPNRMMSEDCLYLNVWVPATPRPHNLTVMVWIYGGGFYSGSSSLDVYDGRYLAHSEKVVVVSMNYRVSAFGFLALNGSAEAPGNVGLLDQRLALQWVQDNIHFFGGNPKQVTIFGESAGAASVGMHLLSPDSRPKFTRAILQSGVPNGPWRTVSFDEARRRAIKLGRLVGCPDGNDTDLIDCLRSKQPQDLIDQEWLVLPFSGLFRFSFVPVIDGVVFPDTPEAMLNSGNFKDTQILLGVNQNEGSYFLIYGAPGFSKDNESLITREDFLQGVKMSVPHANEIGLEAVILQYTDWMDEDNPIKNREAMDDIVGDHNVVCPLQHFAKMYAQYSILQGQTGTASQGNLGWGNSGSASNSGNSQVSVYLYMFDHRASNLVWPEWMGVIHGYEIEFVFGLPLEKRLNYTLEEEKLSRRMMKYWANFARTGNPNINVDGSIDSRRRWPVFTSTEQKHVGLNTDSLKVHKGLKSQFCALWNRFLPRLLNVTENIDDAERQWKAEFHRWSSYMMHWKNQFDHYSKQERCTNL
T1 sequence (P22303 whole entry): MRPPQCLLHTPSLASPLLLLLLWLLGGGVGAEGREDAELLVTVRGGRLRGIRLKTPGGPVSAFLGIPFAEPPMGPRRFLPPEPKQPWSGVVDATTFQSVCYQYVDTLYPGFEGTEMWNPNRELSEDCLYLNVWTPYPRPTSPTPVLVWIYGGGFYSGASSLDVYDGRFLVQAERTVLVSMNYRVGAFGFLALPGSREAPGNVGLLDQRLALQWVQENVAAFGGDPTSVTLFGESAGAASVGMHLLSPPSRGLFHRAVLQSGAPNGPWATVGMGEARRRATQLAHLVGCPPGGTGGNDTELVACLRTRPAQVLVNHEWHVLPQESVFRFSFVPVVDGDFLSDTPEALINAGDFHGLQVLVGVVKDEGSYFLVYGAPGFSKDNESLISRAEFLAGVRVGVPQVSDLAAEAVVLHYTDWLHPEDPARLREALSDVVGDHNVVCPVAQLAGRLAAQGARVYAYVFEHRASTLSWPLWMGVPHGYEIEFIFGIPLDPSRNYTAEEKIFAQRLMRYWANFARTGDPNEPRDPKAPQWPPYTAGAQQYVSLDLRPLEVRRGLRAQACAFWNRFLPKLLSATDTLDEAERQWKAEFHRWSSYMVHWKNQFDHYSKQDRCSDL

On to `CCC(=O)OCCCc1cc(OC)c2oc(-c3ccc4c(c3)OCO4)cc2c1`, for which the inhibition entry (on Acetylcholinesterase [1]; in test [2]; on Acetylcholinesterase [3]) was “inactive” each time.

Turning to `CC(=O)OCCCc1ccc2oc(-c3ccc4c(c3)OCO4)cc2c1`, the inhibition result (at Acetylcholinesterase [1]; in test [2]; on Acetylcholinesterase [3]) was “inactive” in each case.

For the compound `O=CCCCCCCCC(=O)OCCCc1ccc2oc(-c3ccc4c(c3)OCO4)cc2c1`, the inhibition entry at Acetylcholinesterase [1] and at Acetylcholinesterase [3] was “inactive” throughout.

On to `CCCCC/C=C\C/C=C\CCCCCCCC(=O)OCCCc1ccc2oc(-c3ccc4c(c3)OCO4)cc2c1`, for which, at Acetylcholinesterase [1], the inhibition entry was “inactive”. In addition, the figures for the IC50 against Acetylcholinesterase [4] and against Acetylcholinesterase [5] were 2 µM and 2.7 µM, respectively.

For the compound `COc1cc(CCCOC(=O)C(C)C)cc2cc(-c3ccc4c(c3)OCO4)oc12`, the inhibition result at Acetylcholinesterase [1] was “inactive”.

Regarding `COc1cc(CCCOC(=O)NC(C)(C)C)cc2cc(-c3ccc4c(c3)OCO4)oc12`, the inhibition result on Acetylcholinesterase [1] is “inactive”.

Consider `CCCCCCCC/C=C\CCCCCCCC(=O)OCCCc1ccc2oc(-c3ccc4c(c3)OCO4)cc2c1`, for which the inhibition result on Acetylcholinesterase [1] is “inactive”. In addition, the 50% inhibitory concentration (IC50) against Acetylcholinesterase [4] was 2.2 µM; against Acetylcholinesterase [5], 3.1 µM.

On to `CCCCC/C=C\C/C=C\CCCCCCCC(=O)OCCCc1cc(OC)c2oc(-c3ccc4c(c3)OCO4)cc2c1`, for which the inhibition result on Acetylcholinesterase [1] was “inactive”. For the same compound, the IC50 on Acetylcholinesterase [4] worked out at 1.4 µM; against Acetylcholinesterase [5], 1.7 µM.

`COc1cc(CCCOC(C)=O)cc2cc(-c3ccc4c(c3)OCO4)oc12`: the inhibition entry (at Acetylcholinesterase [1]; in test [2]; at Acetylcholinesterase [3]) was “inactive” throughout.

Consider `COc1cc(CCC(=O)O)cc2cc(-c3ccc4c(c3)OCO4)oc12`, for which the inhibition entry (on Acetylcholinesterase [1]; in test [2]; on Acetylcholinesterase [3]) was “inactive” throughout.

`CC[C@H](C)C(=O)OCCCc1cc(OC)c2oc(-c3ccc4c(c3)OCO4)cc2c1`: the inhibition entry at Acetylcholinesterase [1] was “inactive”. For the same compound, the IC50 against Acetylcholinesterase [4] was found to be 4.8 µM; on Acetylcholinesterase [5] it was 5.9 µM.

As to `COc1cc(CCCOC(=O)CCCCCCCC=O)cc2cc(-c3ccc4c(c3)OCO4)oc12`, the inhibition result on Acetylcholinesterase [1] and on Acetylcholinesterase [3] was “inactive” throughout.

As to `OCCCc1ccc2oc(-c3ccc4c(c3)OCO4)cc2c1`, the inhibition result (at Acetylcholinesterase [1]; in test [2]; on Acetylcholinesterase [3]) was “inactive” throughout.

With `CCCC(=O)OCCCc1cc(OC)c2oc(-c3ccc4c(c3)OCO4)cc2c1`, at Acetylcholinesterase [1], the inhibition entry is “inactive”.

Turning to `COc1cc(CCCO)cc2cc(-c3ccc4c(c3)OCO4)oc12`, the inhibition entry (at Acetylcholinesterase [1]; in test [2]; on Acetylcholinesterase [3]) was “inactive” each time.

`COc1cc(CCCOC(=O)Nc2ccccc2)cc2cc(-c3ccc4c(c3)OCO4)oc12`: the inhibition entry at Acetylcholinesterase [1] is “inactive”. The IC50 at Acetylcholinesterase [4] was 3.3 µM; against Acetylcholinesterase [5] it was 4.5 µM.

Turning to `CCCCCCCC/C=C\CCCCCCCC(=O)OCCCc1cc(OC)c2oc(-c3ccc4c(c3)OCO4)cc2c1` [EGONOL OLEATE], at Acetylcholinesterase [1], the inhibition entry is “inactive”. For the same compound, the figures for the IC50 at Acetylcholinesterase [4] and against Acetylcholinesterase [5] were 1.4 µM and 1.8 µM, respectively.

Turning to `CC[C@H](C)C(=O)OCCCc1ccc2oc(-c3ccc4c(c3)OCO4)cc2c1`, at Acetylcholinesterase [1], the inhibition entry was “inactive”. In addition, the IC50 at Acetylcholinesterase [4] was determined as 5.5 µM; against Acetylcholinesterase [5], 6.1 µM.

Turning to `COc1cc(CCC=O)cc2cc(-c3ccc4c(c3)OCO4)oc12`, the inhibition entry (at Acetylcholinesterase [1]; in test [2]; on Acetylcholinesterase [3]) was “inactive” in each case.

By IC50 is commonly meant the concentration that gives 50% inhibition.
